The target in one experiment is T1, VEGFR (KDR) (Homo sapiens, UniProt P35968).
T1 construct: cloning the cytoplasmic domain of the KDR kinase as an in frame fusion at the carboxyl terminus of the GST gene; made in house; host or cells: Spodoptera frugiperda (Sf21) insect cells, baculovirus vector pAcG2T
The experiment is described as follows: VEGF receptor kinase assay (33P incorporation into pEY substrate). It counts as biochemical. As to conditions: read-out: Kinase-Inhibiting Activities IC50 VEGFR. The procedure: VEGF receptor kinase activity is measured by incorporation of radiolabelled phosphate into 4:1 polyglutamic acid/tyrosine substrate (pEY). The phosphorylated pEY product is trapped on a filter membrane and the incorporation of radiolabelled phosphate is quantified by scintillation counting.
The intracellular tyrosine kinase domains of human KDR (Terman, B. I. et al. Oncogene (1991) Vol. 6, pp. 1677-1683.) and Flt-1 (Shibuya, M. et al. Oncogene (1990) Vol. 5, pp. 519-524) were cloned as glutathione S-transferase (GST) gene fusion proteins. This was accomplished by cloning the cytoplasmic domain of the KDR kinase as an in frame fusion at the carboxyl terminus of the GST gene. Soluble recombinant GST-kinase domain fusion proteins were expressed in Spodoptera frugiperda (Sf21) insect cells (Invitrogen) using a baculovirus expression vector (pAcG2T, Pharmingen).
Method B—VEGF Receptor Kinase Assay
1. Add 5 μl of inhibitor or control to the assay in 50% DMSO.
2. Add 35 μl of reaction mixture containing 5 μl of 10× reaction buffer, 5 μl of 25 mM ATP/10 μCi[^33P]ATP (Amersham) and 5 μl of 10× substrate.
3. Start the reaction by the addition of 10 μl of KDR (25 nM) in enzyme dilution buffer.
4. Mix and incubate at room temperature for 15 minutes.
5. Stop the reaction by the addition of 50 μl of stop solution.
6. Incubate at 4° C. for 15 minutes.
7. Transfer a 90 μl aliquot to filter plate.
8. Aspirate and wash 3 times with wash solution.
9. Add 30 μl of scintillation cocktail, seal plate and count in a Wallace Microbeta scintillation counter.

A further experiment addresses TIE-2 (Homo sapiens, UniProt Q02763). The experiment can be described thus: TIE-2 kinase flashplate assay (phosphorylation of poly(Glu, Tyr) with 33P-ATP). It is filed as biochemical. As to conditions: read-out: Kinase-Inhibiting Activities IC50 TIE-2. The procedure:
The TIE-2 tests can be carried out, for example, analogously to the methods indicated in WO 02/44156.
The assay determines the inhibiting activity of the substances to be tested in the phosphorylation of the substrate poly(Glu, Tyr) by Tie-2 kinase in the presence of radioactive ^33P-ATP. The phosphorylated substrate binds to the surface of a “flashplate” microtitre plate during the incubation time. After removal of the reaction mixture, the microtitre plate is washed a number of times and the radioactivity on its surface is subsequently measured. An inhibiting effect of the substances to be measured results in lower radioactivity compared with an undisturbed enzymatic reaction.

TIE-2, sequence (Q02763 23-1124, species assumed): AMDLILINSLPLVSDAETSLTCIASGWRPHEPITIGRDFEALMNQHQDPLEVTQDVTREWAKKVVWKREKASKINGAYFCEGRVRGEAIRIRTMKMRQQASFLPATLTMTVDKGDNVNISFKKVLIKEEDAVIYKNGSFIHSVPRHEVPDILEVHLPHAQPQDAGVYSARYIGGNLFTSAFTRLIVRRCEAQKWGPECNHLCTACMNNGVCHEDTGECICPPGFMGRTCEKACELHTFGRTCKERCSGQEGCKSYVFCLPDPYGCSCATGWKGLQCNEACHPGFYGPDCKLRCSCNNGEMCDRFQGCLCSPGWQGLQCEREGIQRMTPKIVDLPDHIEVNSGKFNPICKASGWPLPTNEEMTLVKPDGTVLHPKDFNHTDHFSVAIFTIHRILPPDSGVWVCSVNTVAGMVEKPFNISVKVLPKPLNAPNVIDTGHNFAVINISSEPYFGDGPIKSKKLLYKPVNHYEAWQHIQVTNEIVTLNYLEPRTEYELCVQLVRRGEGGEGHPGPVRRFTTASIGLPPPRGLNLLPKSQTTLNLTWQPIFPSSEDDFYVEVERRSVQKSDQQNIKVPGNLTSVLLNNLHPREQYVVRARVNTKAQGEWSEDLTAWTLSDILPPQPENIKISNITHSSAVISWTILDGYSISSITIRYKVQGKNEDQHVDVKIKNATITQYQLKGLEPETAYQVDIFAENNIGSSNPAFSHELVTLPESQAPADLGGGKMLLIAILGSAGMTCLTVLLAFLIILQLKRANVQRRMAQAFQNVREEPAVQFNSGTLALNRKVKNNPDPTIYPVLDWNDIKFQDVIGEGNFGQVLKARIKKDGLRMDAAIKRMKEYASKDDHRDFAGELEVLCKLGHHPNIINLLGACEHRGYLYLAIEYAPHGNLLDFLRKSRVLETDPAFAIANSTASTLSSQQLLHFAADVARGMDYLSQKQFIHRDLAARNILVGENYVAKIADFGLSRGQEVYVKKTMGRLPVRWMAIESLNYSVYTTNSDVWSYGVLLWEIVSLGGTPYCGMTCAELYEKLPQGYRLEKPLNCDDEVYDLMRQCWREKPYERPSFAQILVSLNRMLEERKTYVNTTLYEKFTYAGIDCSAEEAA
T1 sequence (P35968 786-1356 limits assumed): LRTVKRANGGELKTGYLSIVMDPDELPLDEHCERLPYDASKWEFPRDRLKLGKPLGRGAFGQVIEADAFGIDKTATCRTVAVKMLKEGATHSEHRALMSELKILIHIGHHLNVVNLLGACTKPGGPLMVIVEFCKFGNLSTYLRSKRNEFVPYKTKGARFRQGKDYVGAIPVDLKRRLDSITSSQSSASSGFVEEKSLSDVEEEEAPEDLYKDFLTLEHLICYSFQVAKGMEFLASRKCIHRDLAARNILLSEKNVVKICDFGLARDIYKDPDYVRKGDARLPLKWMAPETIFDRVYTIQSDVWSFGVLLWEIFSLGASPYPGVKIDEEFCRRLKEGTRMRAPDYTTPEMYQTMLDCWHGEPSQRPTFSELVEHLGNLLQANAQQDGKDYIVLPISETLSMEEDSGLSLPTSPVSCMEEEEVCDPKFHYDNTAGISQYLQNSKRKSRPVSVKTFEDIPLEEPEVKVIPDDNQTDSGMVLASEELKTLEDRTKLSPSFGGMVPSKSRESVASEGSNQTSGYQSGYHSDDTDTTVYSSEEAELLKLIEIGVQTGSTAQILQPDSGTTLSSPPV

The term IC50 denotes the concentration at which inhibition is half-maximal. Regarding `CNC(=O)c1cc(Oc2ccc(NC(=O)Nc3cc(C(C)(C)C)nn3-c3cccc(C(F)(F)F)c3)cc2)ccn1` [Compound 11, 1-[4-(2-Methylaminocarbonylpyridin-4-yloxy)phenyl]-3-[5-tert-butyl-2-(3-trifluoromethylphenyl)-2H-pyrazol-3-yl]urea], the results for the IC50 at VEGFR (KDR) and at TIE-2 were 134 nM and 3.2 nM, respectively.

Consider `CNC(=O)c1cc(Oc2ccc(NC(=O)Nc3cc(-c4ccco4)nn3-c3ccc(F)cc3)cc2)ccn1` [Compound 3, 1-[4-(2-Methylaminocarbonylpyridin-4-yloxy)phenyl]-3-[5-(furan-2-yl)-2-(4-fluorophenyl)-2H-pyrazol-3-yl]urea], for which the figures for the half-maximal inhibitory concentration (IC50) at VEGFR (KDR) and on TIE-2 were 74.8 nM and 9.7 nM, respectively.

On to `CNC(=O)c1cc(Oc2ccc(NC(=O)Nc3cc(C(C)(C)C)nn3-c3ccc(F)cc3)cc2)ccn1` [Compound 1, 1-[4-(2-methylaminocarbonylpyridin-4-yloxy)phenyl]-3-[5-tert-butyl-2-(4-fluorophenyl)-2H-pyrazol-3-yl]urea], for which the IC50 at VEGFR (KDR) amounted to 110 nM; at TIE-2, 6.5 nM.

Consider `CNC(=O)c1cc(Oc2ccc(NC(=O)Nc3cc(-c4ccco4)nn3-c3ccc(C)cc3)cc2)ccn1` [Compound 2, 1-[4-(2-methylaminocarbonylpyridin-4-yloxy)phenyl]-3-[5-(furan-2-yl)-2-(p-tolyl)-2H-pyrazol-3-yl]urea], for which the IC50 at VEGFR (KDR) is 33.5 nM; at TIE-2 it was 4.3 nM.

Turning to `CNC(=O)c1cc(Oc2ccc(NC(=O)Nc3cc(C(C)(C)C)nn3-c3ccc(C)cc3)cc2)ccn1` [Compound 8, 1-[4-(2-Methylaminocarbonylpyridin-4-yloxy)phenyl]-3-[5-tert-butyl-2-(p-tolyl)-2H-pyrazol-3-yl]urea], the IC50 at VEGFR (KDR) came to 58 nM; at TIE-2, 7.2 nM.

Values taken from patent US7767696B2, “Pyrazole derivatives” (Merck Patent GmbH, priority 2005, dated 2010).
